Values after ≈ are worked out from the molar mass of the structure shown. Structures can show the parent of a compound that is named as a salt. Where two headings read alike, the source gives them in different places.
Tests used:
NMDA receptor = test: Whole cell patch clamp, NMDA-induced current in cultured chick spinal cord neurons; assay type: cell-based; details: for inhibition of the NMDA response by extracellular steroid: 100 μM extracellular; for IC50: read-out: IC50 for inhibition of the NMDA response
Procedure: (§1) Cultures of dissociated spinal cord neurons were prepared as previously described (Farb, D. H., et al., J. Cell Biol., 80:651-661 (1979)). Briefly, the dissociated cells from 7-day chick embryos were plated on collagen-coated 35-mm tissue culture dishes in Eagle's minimum essential medium supplemented with 2.4 mM glutamine, 10% (v/v) heat-inactivated horse serum, 5% (v/v) chick embryo extract and antibiotics. Cultures were maintained in a humidified atmosphere of 5% CO2, 95% air at 37°. Cytarabine (1 μM) was added to the culture medium after 36 hr. of the initial plating to inhibit the proliferation of non-neuronal cells. One day later, this medium was replaced with a similar medium supplemented with 20.5 mM glucose, 19 mM KCl, and 2.5% chick embryo extract. Fresh medium was added twice weekly. Cultured neurons were used in experiments within 2-4 weeks after plating.
Experiments were carried out in 35-mm tissue culture dishes on the stage of an inverted phase contrast microscope. Whole cell currents were recorded by the whole cell variant of the patch clamp technique (Hamill, O. P., et al., Pfagers Arch. 891:85-100 (1981)). Patch electrodes had tip openings of about […] and resistances of 3-8 M.OMEGA. using an intracellular solution comprised of the following (in mM): 140 CsCl, 11 EGTA, and 10 HEPES (pH adjusted to 7.2 with CsOH). In experiments in which a high concentration of glycine was used, the intracellular solution was replaced with a low chloride (10 mM) pipette solution. This solution contained the following (in mM): 140 potassium gluconate, 10 KCl, 8 sodium gluconate, 11 EGTA, and 10 HEPES (pH adjusted to 7.2 with KOH). To prevent a marked run-down of NMDA-induced current at high NMDA concentrations, 4 mM potassium ATP was included in the intracellular solution. The bath solution contained the following (in mM): 150 NaCl, 4 KCl, 1 CaCl2, and 10 HEPES (pH adjusted to 7.2 with NaOH). No glycine was added to the solutions containing NMDA, because no additional glycine was required to obtain a robust NMDA response, and there was no effect of a maximal concentration (10 μM) of glycine on 5β3αS inhibition of the NMDA response. All experiments were performed at room temperature (23-25° C.).
Recordings were made using an Axopatch 1B patch clamp apparatus (Axon Instruments, Burlingame, Calif.). Cells with series resistances greater than 10 M.OMEGA. were rejected. After partial compensation, series resistances were between 3.5 and 6 M.OMEGA.. The holding potential was maintained at -70 mV unless otherwise noted. Currents were filtered at 1 kHz using an eight-pole Bessel filter (-3 dB) and digitized ([…]) using an on-line data acquisition system (pClamp, Axon Instruments).
Drug solutions were applied to single neurons by pressure ejection (15 psi) from seven-barrel pipettes. Seven-barrel pressure pipettes were positioned approximately […] from the neuronal soma. Under these conditions, the drug solution in the pressure pipette rapidly and effectively replaces the solution surrounding the target neurons with less than 10% dilution (Choi, D. W., et al., Nature (Lond.) 269:342-344 (1977); Chan, C. Y., et al., Life Sci., 83:2061-2069 (1983); Chan, C. Y. and Farb, D. H., J. Neurosci., 5:2365-2373 (1985)). All drugs were obtained from Sigma, with the except of AMPA hydrobromide (Research Biochemicals) and steroids (Steraloids). Stock solutions of steroids were prepared in dimethyl sulfoxide, the final concentration of which was 0.5% (v/v). To obviate the possible effects of dimethyl sulfoxide on the relevant agonist-induced currents, all other drug solutions including NMDA, kainate, AMPA and external buffer (in the pressure pipette) also contained 0.5% dimethyl sulfoxide. […]

[1] = Maximal solubility in the external buffer; assay type: physicochemical; details: pH 7.2, aqueous buffer, 0.5% dimethyl sulfoxide
AMPA receptors = test: Whole cell patch clamp, AMPA-induced current in cultured chick spinal cord neurons; assay type: cell-based; details: 100 μM steroid; -70 mV
Procedure: as §1
(§2) Experiments were carried out in 35-mm tissue culture dishes on the stage of an inverted phase contrast microscope. Whole cell currents were recorded by the whole cell variant of the patch clamp technique (Hamill, O. P., et al., Pfagers Arch. 891:85-100 (1981)). Patch electrodes had tip openings of about […] and resistances of 3-8 M.OMEGA. using an intracellular solution comprised of the following (in mM): 140 CsCl, 11 EGTA, and 10 HEPES (pH adjusted to 7.2 with CsOH). […]

[2] = molecular target: T1, recombinant NMDA receptors (NR1100 and NR2A subunits) (Rattus norvegicus, UniProt P35439+Q00959); test: Two electrode voltage-clamp of Xenopus oocytes expressing recombinant NMDA receptors; assay type: cell-based
T1 construct: expressed in transfected cells; host or cells: Xenopus laevis oocytes injected with in vitro transcribed mRNA
Procedure: RNA preparation. mRNA were prepared through in vitro transcription of NR1100 and NR2A cDNAs using the mMessage mMachine kit (Ambion, Tex.). NR1100 and NR2A clones were kindly provided by Dr. Zukin and Dr. Nakanishie.
Xenopus expression system. Female, oocyte positive Xenopus laevis frogs were purchased from Nasco, Inc. (WI). The frogs were kept on a 12/12 light-dark cycle and maintained on a diet of chopped calf liver every 3 days. Prior to surgery, frogs were anesthetized in a 0.15% Tricaine solution (Sigma, Mo.) for 30-45 minutes. Ovarian sections containing the follicular oocytes were removed through a lateral abdominal incision and were immediately placed in calcium-free ND96 solution (in mM):96 NaCl; 1 MgCl2; 2 KCl; 5 Hepes; 2.5 pyruvate (pH adjusted to 7.4 with NaOH). Following a 2 hr. incubation in 0.2% collagenase type II (Sigma, Mo.) at room temperature, individual defolliculated oocytes were transferred into 60×15 mm glass petri dishes containing ND96 solution (in mM): 96 NaCl; 1 MgCl2; 2 KCl; 1.8 CaCl2; 5 Hepes; 2.5 pyruvate (pH adjusted to 7.4 with NaOH). The isolated oocytes were maintained in an incubator at 18° C. On the following date, batches of 20-40 selected oocytes (Dumont stage V and VI) were injected with 50 nl of prepared RNA solution (0.5 ng of NR1 and 12 ng of NR2A mRNAs per oocyte) using an electronic microinjector (Drummond, Pa.). The injected oocytes were used for electrophysiological experiments following 4-10 day incubation at 18° C.
Electrical recording and drug application. The ion current recordings were obtained in two electrodes voltage-clamp mode using an Axoclamp-2A amplifier (Axon Instruments, Inc., CA). The microelectrodes were fabricated with a programmed puller (Sutter Instrument Co., CA) from glass capillaries (Dagan, Minn.) and filled with 3M KCl solution. The resistance of filled microelectrodes was in the range of 2.5-3.5 M.OMEGA.. The oocytes were clamped at a holding potential of -70 mV. The membrane current was filtered at 500 Hz and sampled at 100 Hz frequency. The drugs were applied using a gravity driven external perfusion system. The data acquisition and external perfusion control were done using SuperScopeII software package (GW Instruments, MA). All experiments were performed at room temperature of 22-24° C.
The degree of modulation of the amino acid response by steroids, the percent change, was defined at (I'/I-1)×100%, where I and I' are respectively the agonist-induced currents in the absence and presence of steroid. Throughout, results are expressed as mean±SEM; statistical comparison of groups was carried out using Student's t test.

kainate receptors = test: Whole cell patch clamp, kainate-induced current in cultured chick spinal cord neurons; assay type: cell-based; details: 100 μM steroid; -70 mV
Procedure: as §1, §2

[3] = 200 μM steroid in the absence of PS
[4] = 200 μM steroid in the presence of 200 μM PS

T1 sequence (Q00959 23-1464, other chains not shown): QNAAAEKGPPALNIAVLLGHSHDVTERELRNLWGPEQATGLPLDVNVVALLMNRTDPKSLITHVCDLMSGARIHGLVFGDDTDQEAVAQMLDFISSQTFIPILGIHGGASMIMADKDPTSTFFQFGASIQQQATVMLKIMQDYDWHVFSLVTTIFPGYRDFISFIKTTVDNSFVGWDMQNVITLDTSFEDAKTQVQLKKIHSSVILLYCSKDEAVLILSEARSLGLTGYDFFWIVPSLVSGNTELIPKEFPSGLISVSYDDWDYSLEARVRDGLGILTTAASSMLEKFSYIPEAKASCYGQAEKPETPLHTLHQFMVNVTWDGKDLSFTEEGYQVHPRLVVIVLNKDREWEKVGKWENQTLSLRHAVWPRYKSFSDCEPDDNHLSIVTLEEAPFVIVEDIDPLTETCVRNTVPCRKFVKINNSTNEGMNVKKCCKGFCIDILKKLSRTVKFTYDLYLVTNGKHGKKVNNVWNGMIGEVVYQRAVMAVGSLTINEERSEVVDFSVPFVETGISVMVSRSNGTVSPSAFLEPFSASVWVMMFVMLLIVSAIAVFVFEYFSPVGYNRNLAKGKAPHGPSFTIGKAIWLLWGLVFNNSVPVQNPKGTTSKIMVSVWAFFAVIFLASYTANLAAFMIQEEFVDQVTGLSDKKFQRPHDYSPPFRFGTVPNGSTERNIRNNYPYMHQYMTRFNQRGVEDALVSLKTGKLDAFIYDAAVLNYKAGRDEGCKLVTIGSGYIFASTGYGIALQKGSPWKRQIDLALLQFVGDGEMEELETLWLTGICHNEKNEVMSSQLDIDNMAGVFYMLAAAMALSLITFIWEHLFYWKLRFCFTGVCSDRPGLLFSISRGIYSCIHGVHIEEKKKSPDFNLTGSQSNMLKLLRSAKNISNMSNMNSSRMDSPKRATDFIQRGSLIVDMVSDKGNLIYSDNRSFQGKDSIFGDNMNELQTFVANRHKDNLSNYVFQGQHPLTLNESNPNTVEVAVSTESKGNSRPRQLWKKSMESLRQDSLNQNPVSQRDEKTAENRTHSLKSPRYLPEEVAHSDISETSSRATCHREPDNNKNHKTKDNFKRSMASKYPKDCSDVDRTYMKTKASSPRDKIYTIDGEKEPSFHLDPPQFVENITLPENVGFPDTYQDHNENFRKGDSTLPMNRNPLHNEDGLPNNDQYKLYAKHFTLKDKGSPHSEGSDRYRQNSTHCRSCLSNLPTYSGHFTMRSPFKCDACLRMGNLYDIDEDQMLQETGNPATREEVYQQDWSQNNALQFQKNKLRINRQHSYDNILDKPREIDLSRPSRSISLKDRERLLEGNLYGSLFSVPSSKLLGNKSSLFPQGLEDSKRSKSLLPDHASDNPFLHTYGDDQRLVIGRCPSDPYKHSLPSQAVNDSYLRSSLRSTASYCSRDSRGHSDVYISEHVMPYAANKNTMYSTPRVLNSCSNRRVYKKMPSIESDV

CC(=O)[C@H]1CC[C@H]2[C@@H]3CC[C@@H]4C[C@H](O)CC[C@]4(C)[C@H]3CC[C@]12C [5β3α, reference compound]
potentiation of the 30 μM NMDA-induced current (NMDA receptor; 50 μM nonsulfated steroid): 3.6±8.4%
effect on the NMDA response (NMDA receptor; 60 μM nonsulfated steroid): does not produce any significant effect
solubility [1]: 50 µM (≈ 15.9 µg/mL)

CC(=O)[C@H]1CC[C@H]2[C@@H]3CC[C@@H]4C[C@@H](OS(=O)(=O)O)CC[C@]4(C)[C@H]3CC[C@]12C [5β3βS, 3β-hydroxy-5β-pregnan-20-one sulfate]
inhibition of the 25 μM AMPA-induced current (AMPA receptors): 43%
inhibition of a near maximal NMDA response (200 μM) ([2]; 200 μM steroid): 54±8%
inhibition of the peak NMDA response [2, 3]: 46±8%
inhibition of the peak NMDA response [2, 4]: 54±5%
IC50 ([2]; IC50, in the absence of PS): 151 µM
IC50 ([2]; IC50, in the presence of 200 μM PS): 124 µM
inhibition of the NMDA response by extracellular steroid (NMDA receptor; in the absence of intracellular 5β3βS): 48±4%
inhibition of the NMDA response by extracellular steroid (NMDA receptor; in the presence of intracellular 5β3βS): 44±4%
inhibition of the response to 30 μM NMDA (NMDA receptor; 100 μM steroid applied with NMDA, holding potential -70 mV): 59%
inhibition of the 30 μM NMDA response with saturating glycine (NMDA receptor; 100 μM steroid, 10 μM glycine): did not significantly differ from that measured without added glycine
average inhibition of the NMDA response (NMDA receptor; 100 μM steroid, CsCl-containing intracellular solution, 2 cells): 49±5.0%
inhibition of the NMDA response (NMDA receptor; 100 μM steroid, in the presence of 100 μM spermine): 50±5%
inhibition of the peak NMDA response (NMDA receptor; [3]): 59±3%
effect of intracellular steroid on NMDA-induced currents (NMDA receptor; 200 μM steroid in the intracellular buffer): does not inhibit the NMDA-induced currents
inhibition of the peak NMDA response (NMDA receptor; [4]): 50±4%
inhibition of the NMDA response (NMDA receptor; after NEM treatment): 53±5%
inhibition of the NMDA response (NMDA receptor; in the presence of arachidonic acid): 49±5%
IC50 (NMDA receptor; in the absence of PS): 143 µM
IC50 (NMDA receptor; in the presence of 200 μM PS): 120 µM
direct response to steroid applied alone (NMDA receptor; steroid alone at greater than or equal to 100 μM, K+ current, not seen with CsCl intracellular solution): often induced a small outward current
inhibition of the 50 μM kainate-induced current (kainate receptors): 33%

Source: US6083941A, “Inhibition of NMDA receptor activity by pregnenolone sulfate derivatives” (Trustees of Boston University, priority 1998, dated 2000)
